Holding throughout (assay type): biochemical
One test addresses PIM2 (Homo sapiens, UniProt Q9P1W9). The test can be described thus: Pim 2 AlphaScreen assay (high ATP). Particulars: read-out: Pim2 IC50. The procedure, abridged: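 This is a bead-based AlphaScreen run at high ATP (11-125× Km) with biotin-Bad peptide (100 nM in the substrate mix), in 50 mM Hepes pH 7.5, 5 mM MgCl2, 0.05% BSA, 0.01% Tween-20, 1 mM DTT and 2.5% DMSO final. After ~2 h the reaction was stopped with EDTA. Phospho-peptide was detected overnight with anti-phospho Ser/Thr antibody on Protein A and streptavidin beads, giving IC50.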

In the next test the target is GSK3β (Homo sapiens, UniProt P49841). The test can be described thus: GSK3β ATP depletion assay. Particulars: ATP depletion assay; read-out: GSK3b IC50. Summed up: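 Human GSK3β (5 nM) preincubated 15 min with 10 μM biotinylated phospho-CREB peptide in pH 7.5 Tris buffer (15 mM MgCl2, 1 mM DTT, 0.1% BSA, 2.5% DMSO). Reaction started with 2 μM ATP and run to about 50% ATP depletion. Remaining ATP measured by KinaseGlo luminescence.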
Sequence of GSK3β (P49841 whole entry, species assumed): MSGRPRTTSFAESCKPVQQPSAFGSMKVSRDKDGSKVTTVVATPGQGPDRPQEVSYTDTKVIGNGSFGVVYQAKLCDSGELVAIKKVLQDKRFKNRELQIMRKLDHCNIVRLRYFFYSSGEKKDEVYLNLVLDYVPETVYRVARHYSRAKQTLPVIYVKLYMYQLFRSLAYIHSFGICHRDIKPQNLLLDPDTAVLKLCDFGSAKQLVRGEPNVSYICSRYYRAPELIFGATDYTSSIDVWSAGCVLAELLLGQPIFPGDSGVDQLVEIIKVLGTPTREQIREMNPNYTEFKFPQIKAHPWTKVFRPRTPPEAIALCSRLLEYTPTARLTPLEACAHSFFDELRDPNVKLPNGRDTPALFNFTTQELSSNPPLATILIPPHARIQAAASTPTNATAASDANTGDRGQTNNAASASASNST

A further test addresses PIM1 (Homo sapiens, UniProt P11309). Description: Pim 1 AlphaScreen assay (high ATP). Particulars: read-out: Pim1 IC50. The procedure: (§1) Pim1, Pim2, Pim3 AlphaScreen Assay Pim 1, Pim 2 & Pim 3 AlphaScreen assays using high ATP (11-125×ATP Km) were used to determine the biochemical activity of the inhibitors. The activity of Pim 1, Pim 2, & Pim 3 is measured using a homogeneous bead based system quantifying the amount of phosphorylated peptide substrate resulting from kinase-catalyzed phosphoryl transfer to a peptide substrate. Compounds to be tested are dissolved in 100% DMSO and directly distributed to a white 384-well plate at […] per well. To start the reaction, 5 μl of 100 nM Bad peptide (Biotin-AGAGRSRHSSYPAGT —OH) and ATP (concentrations described below) in assay buffer (50 mM Hepes, pH=7.5, 5 mM MgCl2, 0.05% BSA, 0.01% Tween-20, 1 mM DTT) is added to each well. This is followed by the addition of 5 μl/well of Pim 1, Pim 2 or Pim 3 kinase in assay buffer (concentrations described below). Final assay concentrations (described below) are in 2.5% DMSO. The reactions are performed for ˜2 hours, then stopped by the addition of 10 μl of 0.75 μg/ml anti-phospho Ser/Thr antibody (Cell Signaling), 10 μg/ml Protein A AlphaScreen beads (Perkin Elmer), and 10 μg/ml streptavidin coated AlphaScreen beads in stop/detection buffer (50 mM EDTA, 95 mM Tris, pH=7.5, 0.01% Tween-20). The stopped reactions are incubated overnight in the dark. The phosphorylated peptide is detected via an […] initiated chemiluminescence/fluorescence cascade using the Envision plate reader (Perkin Elmer).
(§2) IC50, the half maximal inhibitory concentration, represents the concentration of a test compound that is required for 50% inhibition of its target in vitro under the described assay conditions.

The target of another test is PIM3 (Homo sapiens, UniProt Q86V86). Description: Pim 3 AlphaScreen assay (high ATP). Particulars: read-out: Pim3 IC50. The procedure: as §1, §2

Bounds are passed on as bounds.

Sequence of PIM1 (P11309 whole entry): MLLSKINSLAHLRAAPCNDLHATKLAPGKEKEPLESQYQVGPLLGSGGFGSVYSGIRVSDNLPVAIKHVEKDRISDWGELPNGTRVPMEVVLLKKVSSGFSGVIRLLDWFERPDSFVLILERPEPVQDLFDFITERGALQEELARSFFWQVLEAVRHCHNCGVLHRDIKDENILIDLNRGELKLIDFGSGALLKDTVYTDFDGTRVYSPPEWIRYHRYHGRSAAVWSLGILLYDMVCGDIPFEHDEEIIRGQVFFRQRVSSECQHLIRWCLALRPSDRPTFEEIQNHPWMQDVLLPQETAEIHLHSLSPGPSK
Sequence of PIM2 (Q9P1W9 whole entry): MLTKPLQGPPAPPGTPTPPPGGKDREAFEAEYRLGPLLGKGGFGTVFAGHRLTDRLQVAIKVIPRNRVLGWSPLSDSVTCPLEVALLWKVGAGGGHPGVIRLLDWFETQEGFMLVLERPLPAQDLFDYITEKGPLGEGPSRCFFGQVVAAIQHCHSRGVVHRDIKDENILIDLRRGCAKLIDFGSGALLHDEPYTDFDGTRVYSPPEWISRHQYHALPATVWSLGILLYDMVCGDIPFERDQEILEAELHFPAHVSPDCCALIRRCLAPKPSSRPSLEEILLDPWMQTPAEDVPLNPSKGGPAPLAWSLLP

Consider `N[C@H]1C[C@@H](c2ccncc2NC(=O)c2ccc(F)c(-c3c(F)cccc3F)n2)O[C@@H](C2CC2)[C@@H]1O` [Example 236, N-(4-((2S,4S,5R,6S)-4-amino-6-cyclopropyl-5-hydroxytetrahydro-2H-pyran-2-yl)pyridin-3-yl)-6-(2,6-difluorophenyl)-5-fluoropicolinamide], for which the concentration for half-maximal inhibition (IC50) at PIM2 is 209 nM; at GSK3β, greater than 25000 nM; on PIM1 it was 3.67 nM; on PIM3, 116 nM.
For `N[C@@H]1C[C@H](c2ccncc2NC(=O)c2ccnc(-c3c(F)cccc3F)n2)O[C@@H]2CCCC[C@]12O` [Example 237, N-(4-((2R,4R,4aS,8aR)-4-amino-4a-hydroxyoctahydro-2H-chromen-2-yl)pyridin-3-yl)-2-(2,6-difluorophenyl)pyrimidine-4-carboxamide], in that order: 70 nM, 13 nM, 3.37 nM and 24 nM.
In the same order, the values of `CC[C@]1(O)[C@H](N)C[C@H](c2ccncc2NC(=O)c2nc(-c3c(F)cccc3F)ncc2N)O[C@@H]1C` [Example 239, 5-amino-N-(4-((2R,4R,5S,6R)-4-amino-5-ethyl-5-hydroxy-6-methyltetrahydro-2H-pyran-2-yl)pyridin-3-yl)-2-(2,6-difluorophenyl)pyrimidine-4-carboxamide] are 24 nM, 352 nM, 0.92 nM and 8.4 nM.
For `N[C@@H]1C[C@H](c2ccncc2NC(=O)c2ccc(F)c(-c3c(F)cccc3F)n2)O[C@@H]2CCC(=O)N[C@@H]12` [Example 241, N-(4-((2R,4R,4aS,8aR)-4-amino-6-oxooctahydro-2H-pyrano[3,2-b]pyridin-2-yl)pyridin-3-yl)-6-(2,6-difluorophenyl)-5-fluoropicolinamide], in that order: 393 nM, 6300 nM, 20.8 nM and 132 nM.
Turning to `COc1ccc(F)c(-c2nc(C(=O)Nc3cnccc3[C@H]3C[C@@H](N)[C@](C)(O)[C@@H](C)O3)ccc2F)c1F` [Example 244, N-(4-((2R,4R,5S,6R)-4-amino-5-hydroxy-5,6-dimethyltetrahydro-2H-pyran-2-yl)pyridin-3-yl)-6-(2,6-difluoro-3-methoxyphenyl)-5-fluoropicolinamide], the IC50 is 12.2 nM at PIM2, 809 nM at GSK3β, 0.08 nM on PIM1 and 1.2 nM on PIM3.
In the same order, the values of `Cc1cc(F)c(-c2nc(C(=O)Nc3cnccc3[C@H]3C[C@@H](N)[C@](C)(O)[C@@H](C)O3)ccc2F)c(F)c1` [Example 245, N-(4-((2R,4R,5S,6R)-4-amino-5-hydroxy-5,6-dimethyltetrahydro-2H-pyran-2-yl)pyridin-3-yl)-6-(2,6-difluoro-4-methylphenyl)-5-fluoropicolinamide] are 6.9 nM, 768 nM, 0.05 nM and 0.8 nM.
In the same order, the values of `C[C@]1(O)[C@H](O)C[C@H](c2ccncc2NC(=O)c2nc(-c3c(F)cccc3F)ncc2N)O[C@@H]1C1CC1` [Example 246, 5-amino-N-(4-((2R,4R,5S,6R)-6-cyclopropyl-4,5-dihydroxy-5-methyltetrahydro-2H-pyran-2-yl)pyridin-3-yl)-2-(2,6-difluorophenyl)pyrimidine-4-carboxamide] are 818 nM, 983 nM, 71.2 nM and 970 nM.
In the same order, the values of `C[C@]1(O)[C@H](O)C[C@H](c2ccncc2NC(=O)c2ccc(F)c(-c3c(F)cccc3F)n2)O[C@@H]1C1CC1` [Example 247, N-(4-((2R,4R,5S,6R)-6-cyclopropyl-4,5-dihydroxy-5-methyltetrahydro-2H-pyran-2-yl)pyridin-3-yl)-6-(2,6-difluorophenyl)-5-fluoropicolinamide] are 185 nM, 1200 nM, 4.01 nM and 103 nM.
As for `C[C@@]1(O)[C@@H](O)C[C@@H](c2ccncc2NC(=O)c2ccc(F)c(-c3c(F)cccc3F)n2)O[C@H]1C1CC1` [Example 248, N-(4-((2S,4S,5R,6S)-6-cyclopropyl-4,5-dihydroxy-5-methyltetrahydro-2H-pyran-2-yl)pyridin-3-yl)-6-(2,6-difluorophenyl)-5-fluoropicolinamide], the half-inhibitory concentration (IC50) was determined as 9280 nM at PIM2, 1970 nM at GSK3β, 92 nM at PIM1 and 2270 nM on PIM3.
For `C[C@@]1(O)[C@@H](O)C[C@@H](c2ccncc2NC(=O)c2nc(-c3c(F)cccc3F)ncc2N)O[C@H]1C1CC1` [Example 249, 5-amino-N-(4-((2S,4S,5R,6S)-6-cyclopropyl-4,5-dihydroxy-5-methyltetrahydro-2H-pyran-2-yl)pyridin-3-yl)-2-(2,6-difluorophenyl)pyrimidine-4-carboxamide], in that order: greater than 25000 nM, 6020 nM, 989 nM and 20900 nM.
For `O=C(Nc1cnccc1[C@@H]1C[C@H](O)[C@@H](O)C2(CC2)O1)c1ccc(F)c(-c2c(F)cccc2F)n1` [Example 250, 6-(2,6-difluorophenyl)-N-(4-((5S,7S,8R)-7,8-dihydroxy-4-oxaspiro[2.5]octan-5-yl)pyridin-3-yl)-5-fluoropicolinamide], in that order: 3590 nM, 1040 nM, 20.1 nM and 499 nM.
For `Nc1cnc(-c2c(F)cccc2F)nc1C(=O)Nc1cnccc1[C@@H]1C[C@H](O)[C@@H](O)C2(CC2)O1` [Example 251, 5-amino-2-(2,6-difluorophenyl)-N-(4-((5S,7S,8R)-7,8-dihydroxy-4-oxaspiro[2.5]octan-5-yl)pyridin-3-yl)pyrimidine-4-carboxamide], in that order: 9100 nM, 1110 nM, 90.7 nM and 1320 nM.
For `Nc1cnc(-c2c(F)cccc2F)nc1C(=O)Nc1cnccc1[C@H]1C[C@@H](O)[C@H](O)C2(CC2)O1` [Example 252, 5-amino-2-(2,6-difluorophenyl)-N-(4-((5R,7R,8S)-7,8-dihydroxy-4-oxaspiro[2.5]octan-5-yl)pyridin-3-yl)pyrimidine-4-carboxamide], the 50% inhibitory concentration (IC50) on PIM2 was found to be 848 nM; on GSK3β, 572 nM; on PIM1, 20.3 nM; at PIM3, 252 nM.
Take `O=C(Nc1cnccc1[C@H]1C[C@@H](O)[C@H](O)C2(CC2)O1)c1ccc(F)c(-c2c(F)cccc2F)n1` [Example 253, 6-(2,6-difluorophenyl)-N-(4-((5R,7R,8S)-7,8-dihydroxy-4-oxaspiro[2.5]octan-5-yl)pyridin-3-yl)-5-fluoropicolinamide]: the concentration for half-maximal inhibition (IC50) at PIM2 amounted to 79.5 nM; on GSK3β, 273 nM; at PIM1, 0.99 nM; at PIM3, 12.6 nM.
In the same order, the values of `CC(C)(C)[C@@H]1O[C@H](c2ccncc2NC(=O)c2ccc(F)c(-c3c(F)cccc3F)n2)C[C@H](N)[C@H]1O` [Example 254, N-(4-((2S,4S,5R,6S)-4-amino-6-(tert-butyl)-5-hydroxytetrahydro-2H-pyran-2-yl)pyridin-3-yl)-6-(2,6-difluorophenyl)-5-fluoropicolinamide] are 47.2 nM, 4690 nM, 0.78 nM and 16 nM.
Regarding `CC(C)(C)[C@H]1O[C@@H](c2ccncc2NC(=O)c2ccc(F)c(-c3c(F)cccc3F)n2)C[C@@H](N)[C@@H]1O` [Example 255, N-(4-((2R,4R,5S,6R)-4-amino-6-(tert-butyl)-5-hydroxytetrahydro-2H-pyran-2-yl)pyridin-3-yl)-6-(2,6-difluorophenyl)-5-fluoropicolinamide], the half-inhibitory concentration (IC50) at PIM2 stood at 1.7 nM; on GSK3β, 2190 nM; at PIM1 it was 0.03 nM; at PIM3, 0.4 nM.

The record behind these values is US20130109682A1, “CYCLIC ETHER COMPOUNDS USEFUL AS KINASE INHIBITORS” (NOVARTIS AG, priority 2010, published 2013).
